According to patent US20250154154A1 (Relay Binney Street, 2nd Floor, priority 2020, published 2025):

What was measured:
SRC = SRC (Homo sapiens, UniProt P12931); assay: SRC Biochemical Assay Protocol (microfluidic mobility shift assay, FLPeptide4 substrate)
Procedure, shortened: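 Mobility-shift readout of phosphorylated FLPeptide4 (1.5 μM) after 90 min kinase reaction with 50 μM ATP and 0.26 nM SRC in pH 7.4 HEPES buffer. Compounds, tested 0.0017–100 μM, were preincubated 30 min with enzyme and peptide; IC50 from 4-parameter logistic fit versus neutral controls.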

RBE cells = assay: Cell Viability Protocol (CellTiterGlo), RBE cells; type: cell-based; details: RBE or SNU-1079 cells, 72 or 120 hour, cell line and time not given
Procedure, shortened: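 After 72 h or 120 h compound exposure at 37° C, viability was read by CellTiterGlo as % of DMSO vehicle, with IC50 fitted by a 4-parameter curve. Cells had been seeded at 1200/well in 10% FBS RPMI 1640 and allowed 24 h before dosing.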

[1] = test system: phospho-S6RP (Ser 235/236) in RBE cells; assay: Cellular Proliferation Protocol (cellular phospho-S6RP HTRF), RBE cells; type: cell-based; details: 6 hours treatment, RBE or SNU-1079 cells, cell line not given
Procedure, shortened: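 Phospho-S6RP (Ser 235/236) was quantified by HTRF in lysed RBE cells (2000/well) after a 6 h treatment at 37° C, with overnight antibody incubation at room temperature. IC50 values came from 4-parameter dose-response fits relative to DMSO vehicle.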

Sequence of SRC (P12931 whole entry, species assumed): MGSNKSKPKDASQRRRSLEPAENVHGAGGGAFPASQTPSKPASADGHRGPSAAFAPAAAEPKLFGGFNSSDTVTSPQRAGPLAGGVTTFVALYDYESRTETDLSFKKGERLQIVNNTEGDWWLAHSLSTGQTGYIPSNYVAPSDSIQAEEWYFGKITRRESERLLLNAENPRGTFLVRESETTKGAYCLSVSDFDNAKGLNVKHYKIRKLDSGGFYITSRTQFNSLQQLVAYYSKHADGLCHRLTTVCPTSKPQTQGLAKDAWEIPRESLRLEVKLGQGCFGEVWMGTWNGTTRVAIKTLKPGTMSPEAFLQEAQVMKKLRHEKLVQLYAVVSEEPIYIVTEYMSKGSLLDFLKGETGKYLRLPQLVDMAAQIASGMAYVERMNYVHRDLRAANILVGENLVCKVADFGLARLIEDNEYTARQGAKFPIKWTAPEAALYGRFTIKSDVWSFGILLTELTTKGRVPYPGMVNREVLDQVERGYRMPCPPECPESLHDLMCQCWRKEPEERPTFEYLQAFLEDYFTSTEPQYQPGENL

| Compound | IC50 (SRC) | IC50 (RBE cells) | IC50 ([1]; 6 h) | IC50 [1] |
| --- | --- | --- | --- | --- |
| COc1cc(-c2c(C#C[C@@H]3[C@H]4CN(C(=O)/C=C/CN(C)C)C[C@@H]34)n(C)c3ncnc(N)c23)ccc1Oc1cccc(C)n1 [II-239, (E)-1-((1R,5S,6s)-6-((4-amino-5-(3-methoxy-4-((6-methylpyridin-2-yl)oxy)phenyl)-7-methyl-7H-pyrrolo[2,3-d]pyrimidin-6-yl)ethynyl)-3-azabicyclo[3.1.0]hexan-3-yl)-4-(dimethylamino) but-2-en-1-one] | 10 to 1000 nM | 10 to 1000 nM | 10 to 1000 nM |  |
| C=CC(=O)N1C[C@@H]2[C@@H](C#Cc3c(-c4ccc(Oc5ccccc5)c(OC)c4)c4c(N)ncnc4n3C)[C@@H]2C1 [II-27] | ≤ 10 nM | ≤ 10 nM |  | ≤ 10 nM |
| C=CC(=O)N1C[C@@H]2[C@@H](C#Cc3c(-c4ccc(F)c5c4OCO5)c4c(N)ncnc4n3C)[C@@H]2C1 [II-130] | ≤ 10 nM | 10 to 1000 nM |  | 10 to 1000 nM |
| CN(C)C/C=C/C(=O)N1C[C@@H]2[C@@H](C#Cc3c(-c4ccc(Oc5ccccc5)cc4)c4c(N)ncnc4n3C)[C@@H]2C1 [II-207] | 10 to 1000 nM | 10 to 1000 nM | 10 to 1000 nM |  |
| C=CC(=O)N1C[C@@H]2[C@@H](C#Cc3c(-c4ccc(F)c5c4OCO5)c4c(N)ncnc4n3C(C)C)[C@@H]2C1 [II-131] | ≤ 10 nM | ≤ 10 nM |  | ≤ 10 nM |
| CN(C)C/C=C/C(=O)N1C[C@@H]2[C@@H](C#Cc3c(-c4ccc(Oc5ccccc5)cc4)c4c(N)ncnc4n3C)[C@@H]2C1 [III-2] | 10 to 1000 nM | ≤ 10 nM |  | ≤ 10 nM |
| C=CC(=O)N1C[C@@H]2[C@@H](C#Cc3c(-c4ccc(Oc5cccc(C)n5)cc4OC)c4c(N)ncnc4n3CCOC)[C@@H]2C1 [II-276] | 10 to 1000 nM | 10 to 1000 nM | 10 to 1000 nM |  |
| Cc1ccnc(Oc2ccc(-c3c(C#C[C@@H]4[C@H]5CN(C(=O)/C=C/CN(C)C)C[C@@H]45)n(C)c4ncnc(N)c34)cc2)c1 [II-241, (E)-1-((1R,5S,6s)-6-((4-amino-7-methyl-5-(4-((4-methylpyridin-2-yl)oxy)phenyl)-7H-pyrrolo[2,3-d]pyrimidin-6-yl)ethynyl)-3-azabicyclo[3.1.0]hexan-3-yl)-4-(dimethylamino) but-2-en-1-one] | 10 to 1000 nM | 10 to 1000 nM |  | 10 to 1000 nM |
| Cc1cccc(Oc2ccc(-c3c(C#C[C@@H]4[C@H]5CN(C(=O)/C=C/CN6CCC(F)C6)C[C@@H]45)n(C)c4ncnc(N)c34)cc2)n1 (stereo partly drawn) [II-230, (E)-1-((1R,5S,6s)-6-((4-amino-7-methyl-5-(4-((6-methylpyridin-2-yl)oxy)phenyl)-7H-pyrrolo[2,3-d]pyrimidin-6-yl)ethynyl)-3-azabicyclo[3.1.0]hexan-3-yl)-4-(3-fluoropyrrolidin-1-yl)but-2-en-1-one] | 10 to 1000 nM | 10 to 1000 nM | 10 to 1000 nM |  |
| C=CC(=O)N1CCC(N2CC(C#Cc3c(-c4ccc(C5CC5)cc4)c4c(N)ncnc4n3C)C2)CC1 [II-99] | 10 to 1000 nM | 10 to 1000 nM |  | 10 to 1000 nM |
| COCCN(C)C/C=C/C(=O)N1C[C@@H]2[C@@H](C#Cc3c(-c4ccc(Oc5cccc(C)n5)c(OC)c4)c4c(N)ncnc4n3C)[C@@H]2C1 [II-237, (E)-1-((1R,5S,6s)-6-((4-amino-5-(3-methoxy-4-((6-methylpyridin-2-yl)oxy)phenyl)-7-methyl-7H-pyrrolo[2,3-d]pyrimidin-6-yl)ethynyl)-3-azabicyclo[3.1.0]hexan-3-yl)-4-((2-methoxyethyl) (methyl)amino)but-2-en-1-one] | 10 to 1000 nM | 10 to 1000 nM | 10 to 1000 nM |  |
| C=CC(=O)N1CCC(C#Cc2c(-c3ccc(Oc4ccccc4)cc3)c3c(N)ncnc3n2C2CCNCC2)CC1 [Example I-40] | 10 to 1000 nM | 1000 to 10000 nM | 1000 to 10000 nM |  |
| C=CC(=O)N1CC[C@H](N2CC(F)(C#Cc3c(-c4ccc(Oc5cccc(C)n5)cc4)c4c(N)ncnc4n3C)C2)[C@@H](O)C1 [II-220, 1-((3S,4S)-4-(3-((4-amino-7-methyl-5-(4-((6-methylpyridin-2-yl)oxy)phenyl)-7H-pyrrolo[2,3-d]pyrimidin-6-yl)ethynyl)-3-fluoroazetidin-1-yl)-3-hydroxypiperidin-1-yl)prop-2-en-1-one] | 10 to 1000 nM | 10 to 1000 nM | 10 to 1000 nM |  |
| C=CC(=O)N(C)CC#Cc1c(-c2ccc(Oc3ccccc3)cc2)c2c(N)ncnc2n1C [II-163, N-(3-(4-amino-7-methyl-5-(4-phenoxyphenyl)-7H-pyrrolo[2,3-d]pyrimidin-6-yl)prop-2-yn-1-yl)-N-methylacrylamide] | ≤ 10 nM | 10 to 1000 nM | 10 to 1000 nM |  |
| C=CC(=O)N1CC[C@@H](N2CC(C#Cc3c(-c4ccc(OC)cc4)c4c(N)ncnc4n3C)C2)[C@@H](O)C1 [II-25] | 10 to 1000 nM | 10 to 1000 nM |  | 10 to 1000 nM |
| C=CC(=O)N1C[C@@H]2[C@@H](C#Cc3c(-c4ccc(Oc5cccc(C)n5)c(OC)c4)c4c(N)ncnc4n3CS(C)(=O)=O)[C@@H]2C1 [II-51] | 10 to 1000 nM | 10 to 1000 nM |  | 10 to 1000 nM |
| CN(C)C/C=C/C(=O)N1CC(C#Cc2c(-c3ccc(Oc4ccccc4)cc3)c3c(N)ncnc3n2CCO)C1 [II-194, (E)-1-(3-((4-amino-7-(2-hydroxyethyl)-5-(4-phenoxyphenyl)-7H-pyrrolo[2,3-d]pyrimidin-6-yl)ethynyl)azetidin-1-yl)-4-(dimethylamino) but-2-en-1-one] | 10 to 1000 nM | 10 to 1000 nM | 10 to 1000 nM |  |
| C=CC(=O)N1CC(N2CCC(C#Cc3c(-c4ccc(Oc5ccccc5)cc4)c4c(N)ncnc4n3C(C)C)CC2)C1 [Example I-45] | ≤ 10 nM | ≤ 10 nM | ≤ 10 nM |  |
| C=CC(=O)N1CCC(N2CC(C#Cc3c(-c4ccc(Oc5ccccc5)c(OC(F)F)c4)c4c(N)ncnc4n3C)C2)CC1 [II-35, 1-(4-(3-((4-amino-5-(3-(difluoromethoxy)-4-phenoxyphenyl)-7-methyl-7H-pyrrolo[2,3-d]pyrimidin-6-yl)ethynyl)azetidin-1-yl)piperidin-1-yl)prop-2-en-1-one] | 10 to 1000 nM | 10 to 1000 nM | 10 to 1000 nM |  |
| C=CC(=O)N1CC[C@@H](N2CC(C#Cc3c(-c4ccc(OC5CC5)c(OC)c4)c4c(N)ncnc4n3C)C2)[C@@H](O)C1 [II-68] | 1000 to 10000 nM | 1000 to 10000 nM |  | 10 to 1000 nM |
